Article PMC3183289 (Bioorganic & medicinal chemistry, 2011)
Where two headings read alike, the source gives them in different places.

Columns and labels:
mPGES-1 = conditions: cited from earlier work
recombinant mPGES-1 = molecular target: T1, recombinant mPGES-1 (Homo sapiens, UniProt O14684); experiment: in vitro mPGES-1 enzyme activity assay; type: biochemical; conditions: −RTln(Kd) ≈ −RTln(IC50), from measured IC50
T1 sequence (O14684 1-152): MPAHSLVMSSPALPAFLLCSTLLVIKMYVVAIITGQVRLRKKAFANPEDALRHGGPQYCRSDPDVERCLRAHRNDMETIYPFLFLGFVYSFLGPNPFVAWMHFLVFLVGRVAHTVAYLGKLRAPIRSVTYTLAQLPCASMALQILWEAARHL

CSc1ccc(/C=C2/C(C)=C(CC(=O)O)c3cc(F)ccc32)cc1
IC50 (mPGES-1): 80 µM

CCCCC/C=C\C\C=C/C=C/C=C/[C@@H](SC[C@H](NC(=O)CC[C@H](N)C(=O)O)C(=O)NCC(=O)O)[C@@H](O)CCCC(=O)O [Leukotriene C4]
IC50 (mPGES-1; probably by competing with glutathione): micromolar

COCCN(c1ccc(/C=C2\S/C(=N\c3ccccc3)N(C(C)C(=O)O)C2=O)cc1)c1ccccc1OC (stereo not drawn) [Compound 3]
ΔGbind^Exp (recombinant mPGES-1): -7.44 kcal/mol
